Laboratory results published in patent US11661426B2, “Imidazole-containing inhibitors of ALK2 kinase” (BioCryst Pharmaceuticals, Inc., priority 2017, dated 2023).

These compounds were tested against ALK2 (Homo sapiens (Human), UniProt Q04771) (assay: ALK2 inhibition, LanthaScreen Eu Kinase Binding Assay (ThermoFisher Scientific / Life Technologies)). Conditions: read-out: Measured Ki (IC50) Value for Compounds: IC50.
Experimental: Biochemical assays to measure the inhibitory effects of the compounds were performed by ThermoFisher Scientific (Life Technologies). ALK2 inhibition was tested using LanthaScreen™ Eu Kinase Binding Assay screening protocol.

ALK2, sequence (Q04771 21-509): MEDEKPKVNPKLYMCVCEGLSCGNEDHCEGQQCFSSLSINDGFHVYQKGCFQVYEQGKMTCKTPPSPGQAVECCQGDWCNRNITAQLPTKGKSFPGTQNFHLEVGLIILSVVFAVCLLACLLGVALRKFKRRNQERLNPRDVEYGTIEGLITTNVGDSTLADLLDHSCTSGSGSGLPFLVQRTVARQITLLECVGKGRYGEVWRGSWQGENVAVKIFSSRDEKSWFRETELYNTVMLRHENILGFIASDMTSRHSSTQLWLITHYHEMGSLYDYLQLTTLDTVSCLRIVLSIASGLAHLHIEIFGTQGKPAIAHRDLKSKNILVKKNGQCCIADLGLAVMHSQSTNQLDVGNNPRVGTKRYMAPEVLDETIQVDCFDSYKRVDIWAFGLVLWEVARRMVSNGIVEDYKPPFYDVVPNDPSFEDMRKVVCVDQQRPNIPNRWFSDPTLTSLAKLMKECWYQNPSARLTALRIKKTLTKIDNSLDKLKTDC

| IC50 [nM] | Structure (SMILES) |
| --- | --- |
| < 100 | COc1cc(-n2cnc(Nc3nc4c(c(N5CCC[C@H]5CO)n3)CN(C(=O)[C@@H]3CCC(=O)N3)CC4)c2)cc(OC)c1OC [Compound 240a, (S)-5-(4-((S)-2-(hydroxymethyl)pyrrolidin-1-yl)-2-((1-(3,4,5-trimethoxyphenyl)-1H-imidazol-4-yl)amino)-5,6,7,8-tetrahydropyrido[4,3-d]pyrimidine-6-carbonyl)pyrrolidin-2-one] |
| < 100 | COc1cc(-n2cnc(Nc3nc4c(c(N5CCC[C@H]5CO)n3)CN(C(=O)c3ccc(C#N)cc3)CC4)c2)cc(OC)c1OC [Compound 241a, (S)-4-(4-(2-(hydroxymethyl)pyrrolidin-1-yl)-2-((1-(3,4,5-trimethoxyphenyl)-1H-imidazol-4-yl)amino)-5,6,7,8-tetrahydropyrido[4,3-d]pyrimidine-6-carbonyl)benzonitrile] |
| 100 to 1000 | COc1cc(OC)cc(-n2cnc(Nc3nc(N4CCC[C@H]4CO)c4cccn4n3)c2)c1 [Compound 242a, (S)-(1-(2-((1-(3,5-dimethoxyphenyl)-1H-imidazol-4-yl)amino)pyrrolo[2,1-f][1,2,4]triazin-4-yl)pyrrolidin-2-yl)methanol] |
| 100 to 1000 | COc1ccc(-n2cnc(Nc3nc(N4CCC[C@H]4CO)c4cccn4n3)c2)cc1OC [Compound 243a, (S)-(1-(2-((1-(3,4-dimethoxyphenyl)-1H-imidazol-4-yl)amino)pyrrolo[2,1-f][1,2,4]triazin-4-yl)pyrrolidin-2-yl)methanol] |
| < 100 | COc1cc(-n2cnc(Nc3nc(N4CCC[C@H]4CO)c4ccc(OC(C)C)cc4n3)c2)cc(OC)c1OC [Compound 244b, (S)-(1-(7-isopropoxy-2-((1-(3,4,5-trimethoxyphenyl)-1H-imidazol-4-yl)amino)quinazolin-4-yl)pyrrolidin-2-yl)methanol] |
| < 100 | COc1cc(-n2cnc(Nc3nc(N4CCC[C@H]4C(N)=O)nn4c(CN5CCNCC5)ccc34)c2)cc(OC)c1OC [Compound 245c, (S)-1-(7-(piperazin-1-ylmethyl)-4-((1-(3,4,5-trimethoxyphenyl)-1H-imidazol-4-yl)amino)pyrrolo[2,1-f][1,2,4]triazin-2-yl)pyrrolidine-2-carboxamide] |
| < 100 | COc1cc(-n2cnc(Nc3nc(N4CC[C@@H](CO)C4)nc4ccoc34)c2)cc(OC)c1OC [Compound 246a, (R)-(1-(4-((1-(3,4,5-trimethoxyphenyl)-1H-imidazol-4-yl)amino)furo[3,2-d]pyrimidin-2-yl)pyrrolidin-3-yl)methanol] |
| < 100 | COc1cc(-n2cnc(Nc3nc(N4CCC[C@H]4C(=O)NC4CC4)nc4ccoc34)c2)cc(OC)c1OC [Compound 247b, (S)—N-cyclopropyl-1-(4-((1-(3,4,5-trimethoxyphenyl)-1H-imidazol-4-yl)amino)furo[3,2-d]pyrimidin-2-yl)pyrrolidine-2-carboxamide] |
| < 100 | COc1cc(-n2cnc(Nc3nc(N4CCC[C@H]4C(=O)NCC4CC4)nc4ccoc34)c2)cc(OC)c1OC [Compound 248a, (S)—N-(cyclopropylmethyl)-1-(4-((1-(3,4,5-trimethoxyphenyl)-1H-imidazol-4-yl)amino)furo[3,2-d]pyrimidin-2-yl)pyrrolidine-2-carboxamide] |
| 100 to 1000 | COc1cc(Cl)cc(-n2cnc(Nc3nc(N4CCC[C@H]4CO)c4cccn4n3)c2)c1 [Compound 249d, (S)-(1-(2-((1-(3-chloro-5-methoxyphenyl)-1H-imidazol-4-yl)amino)pyrrolo[2,1-f][1,2,4]triazin-4-yl)pyrrolidin-2-yl)methanol] |
| > 1000 | COc1cc(-n2cnc(Nc3nc(N4CCC[C@H]4CO)c4cccn4n3)c2)ccc1Cl [Compound 250d, (S)-(1-(2-((1-(4-chloro-3-methoxyphenyl)-1H-imidazol-4-yl)amino)pyrrolo[2,1-f][1,2,4]triazin-4-yl)pyrrolidin-2-yl)methanol] |
| < 100 | COc1cc(-n2cnc(Nc3nc(N4CC[C@@H](N(C)C)C4)nc4ccoc34)c2)cc(OC)c1OC [Compound 251a, (R)-2-(3-(dimethylamino)pyrrolidin-1-yl)-N-(1-(3,4,5-trimethoxyphenyl)-1H-imidazol-4-yl)furo[3,2-d]pyrimidin-4-amine] |
| < 100 | CNC(=O)[C@@H]1CCCN1c1nc(Nc2cn(-c3cc(OC)c(OC)c(OC)c3)cn2)c2occc2n1 [Compound 252a, (S)—N-methyl-1-(4-((1-(3,4,5-trimethoxyphenyl)-1H-imidazol-4-yl)amino)furo[3,2-d]pyrimidin-2-yl)pyrrolidine-2-carboxamide] |
| > 1000 | COc1cc(-n2cnc(Nc3nc(N4CCC[C@H]4C(N)=O)nc4cnn(C)c34)c2)cc(OC)c1OC [Compound 253c, (S)-1-(1-methyl-7-((1-(3,4,5-trimethoxyphenyl)-1H-imidazol-4-yl)amino)-1H-pyrazolo[4,3-d]pyrimidin-5-yl)pyrrolidine-2-carboxamide] |
| < 100 | COc1cc(-n2cnc(Nc3nc(N4CCC[C@H]4CO)nc4c3CCN(CCC(N)=O)C4)c2)cc(OC)c1OC [Compound 254a, (S)-3-(2-(2-(hydroxymethyl)pyrrolidin-1-yl)-4-((1-(3,4,5-trimethoxyphenyl)-1H-imidazol-4-yl)amino)-5,6-dihydropyrido[3,4-d]pyrimidin-7(8H)-yl)propanamide] |
| < 100 | COc1cc(-n2cnc(Nc3nc(N4CCC[C@H]4C(N)=O)nc4c3CCN(CCC(N)=O)C4)c2)cc(OC)c1OC [Compound 255a, (S)-1-(7-(3-amino-3-oxopropyl)-4-((1-(3,4,5-trimethoxyphenyl)-1H-imidazol-4-yl)amino)-5,6,7,8-tetrahydropyrido[3,4-d]pyrimidin-2-yl)pyrrolidine-2-carboxamide] |
| > 1000 | CCOc1ccc(-n2cnc(Nc3nc(N4CCC[C@H]4CO)c4cccn4n3)c2)cc1OCC [Compound 256d, (S)-(1-(2-((1-(3,4-diethoxyphenyl)-1H-imidazol-4-yl)amino)pyrrolo[2,1-f][1,2,4]triazin-4-yl)pyrrolidin-2-yl)methanol] |
| 100 to 1000 | COc1cc(C)cc(-n2cnc(Nc3nc(N4CCC[C@H]4CO)c4cccn4n3)c2)c1 [Compound 257d, (S)-(1-(2-((1-(3-methoxy-5-methylphenyl)-1H-imidazol-4-yl)amino)pyrrolo[2,1-f][1,2,4]triazin-4-yl)pyrrolidin-2-yl)methanol] |
| > 1000 | COc1cc(-n2cnc(Nc3nc(N4CCC[C@H]4CO)c4cccn4n3)c2)ccc1C#N [Compound 258d, (S)-4-(4-((4-(2-(hydroxymethyl)pyrrolidin-1-yl)pyrrolo[2,1-f][1,2,4]triazin-2-yl)amino)-1H-imidazol-1-yl)-2-methoxybenzonitrile] |
| < 100 | COc1cc(-n2cnc(Nc3nc(N4CCC[C@H]4CO)c4ccc(C(=O)N5CCCCC5)n4n3)c2)cc(OC)c1OC [Compound 259d, (S)-(4-(2-(hydroxymethyl)pyrrolidin-1-yl)-2-((1-(3,4,5-trimethoxyphenyl)-1H-imidazol-4-yl)amino)pyrrolo[2,1-f][1,2,4]triazin-7-yl)(piperidin-1-yl)methanone] |
| < 100 | COc1cc(-n2cnc(Nc3nc(N4CCC(F)(F)C4)nc4ccoc34)c2)cc(OC)c1OC [Compound 260a, 2-(3,3-difluoropyrrolidin-1-yl)-N-(1-(3,4,5-trimethoxyphenyl)-1H-imidazol-4-yl)furo[3,2-d]pyrimidin-4-amine] |
| < 100 | COc1cc(-n2cnc(Nc3nc(N4CC[C@H](N(C)C)C4)nc4ccoc34)c2)cc(OC)c1OC [Compound 261a, (S)-2-(3-(dimethylamino)pyrrolidin-1-yl)-N-(1-(3,4,5-trimethoxyphenyl)-1H-imidazol-4-yl)furo[3,2-d]pyrimidin-4-amine] |
| > 1000 | OC[C@@H]1CCCN1c1nc(Nc2cn(-c3cccc(OC(F)(F)F)c3)cn2)nn2cccc12 [Compound 262d, (S)-(1-(2-((1-(3-(trifluoromethoxy)phenyl)-1H-imidazol-4-yl)amino)pyrrolo[2,1-f][1,2,4]triazin-4-yl)pyrrolidin-2-yl)methanol] |
| > 1000 | Cc1cc(OC(F)(F)F)cc(-n2cnc(Nc3nc(N4CCC[C@H]4CO)c4cccn4n3)c2)c1 [Compound 263d, (S)-(1-(2-((1-(3-methyl-5-(trifluoromethoxy)phenyl)-1H-imidazol-4-yl)amino)pyrrolo[2,1-f][1,2,4]triazin-4-yl)pyrrolidin-2-yl)methanol] |
| < 100 | COc1cc(-n2cnc(Nc3nc4c(c(N5CCC[C@@H]5CO)n3)CCCC4)c2)cc(OC)c1OC [Compound 264b, (R)-(1-(2-((1-(3,4,5-trimethoxyphenyl)-1H-imidazol-4-yl)amino)-5,6,7,8-tetrahydroquinazolin-4-yl)pyrrolidin-2-yl)methanol] |
| < 100 | COc1cc(-n2cnc(Nc3nc(N4CCC[C@H]4C(N)=O)nc4cc(F)ccc34)c2)cc(OC)c1OC [Compound 266c, (S)-1-(7-fluoro-4-((1-(3,4,5-trimethoxyphenyl)-1H-imidazol-4-yl)amino)quinazolin-2-yl)pyrrolidine-2-carboxamide] |
| 100 to 1000 | COc1c(O)cc(-n2cnc(Nc3nc(N4CCC[C@H]4CO)nn4cccc34)c2)cc1C(=O)NCC1CC1 [Compound 267i, (S)—N-(cyclopropylmethyl)-3-hydroxy-5-(4-((2-(2-(hydroxymethyl)pyrrolidin-1-yl)pyrrolo[2,1-f][1,2,4]triazin-4-yl)amino)-1H-imidazol-1-yl)-2-methoxybenzamide] |
| < 100 | COc1cc(-n2cnc(Nc3nc(N4CCC[C@H]4CO)nn4cccc34)c2)cc(C(N)=O)c1O [Compound 268b, (S)-2-hydroxy-5-(4-((2-(2-(hydroxymethyl)pyrrolidin-1-yl)pyrrolo[2,1-f][1,2,4]triazin-4-yl)amino)-1H-imidazol-1-yl)-3-methoxybenzamide] |

| Structure (SMILES) | IC50 [nM] |
| --- | --- |
| COc1cc(-n2cnc(Nc3nc(N(C)C4CCN(C)CC4)nc4ccoc34)c2)cc(OC)c1OC [Compound 265a, N2-methyl-N2-(1-methylpiperidin-4-yl)-N4-(1-(3,4,5-trimethoxyphenyl)-1H-imidazol-4-yl)furo[3,2-d]pyrimidine-2,4-diamine] | < 100 |
